# Experimental data from US6861438B2, “Antiviral agents” (Pfizer, priority 2002, dated 2005).
row,melting point,Structure (SMILES)
1,295 °C (dec.),"O=C(NCc1ccc(Cl)cc1)c1cnc2ccsc2c1O [Example 1, N-(4-Chlorobenzyl)-7-hydroxythieno[3,2-b]pyridine-6-carboxamide]"
2,189 to 192 °C,"CCn1cc(C(=O)NCc2ccc(Cl)cc2)c(=O)c2sccc21 [Example 2, N-(4-Chlorobenzyl)-4-ethyl-7-oxo-4,7-dihydrothieno[3,2-b]pyridine-6-carboxamide]"
